# Target: T1, Aromatase (Homo sapiens, UniProt P11511)
# T1 sequence (P11511 whole entry): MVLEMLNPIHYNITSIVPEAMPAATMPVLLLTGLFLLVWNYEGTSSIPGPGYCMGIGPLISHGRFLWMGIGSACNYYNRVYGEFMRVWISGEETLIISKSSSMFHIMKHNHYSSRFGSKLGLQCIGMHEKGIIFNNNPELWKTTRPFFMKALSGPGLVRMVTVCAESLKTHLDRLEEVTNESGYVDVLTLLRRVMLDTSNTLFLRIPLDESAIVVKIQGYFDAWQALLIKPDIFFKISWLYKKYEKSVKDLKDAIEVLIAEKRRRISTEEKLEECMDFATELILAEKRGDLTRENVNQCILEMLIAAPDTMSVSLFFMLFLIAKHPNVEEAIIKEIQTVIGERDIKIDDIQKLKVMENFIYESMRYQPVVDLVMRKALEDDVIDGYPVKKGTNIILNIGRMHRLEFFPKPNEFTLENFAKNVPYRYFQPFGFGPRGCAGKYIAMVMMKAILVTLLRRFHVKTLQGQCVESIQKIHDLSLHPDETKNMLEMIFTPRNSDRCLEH
# Assay: Inhibition of human aromatase expressed in CHO cells
# Type: cell-based
row,Ki [µM],SMILES
1,100,O=c1c(-c2ccc(O)cc2)coc2cc(O)ccc12 [DAIDZEIN]
2,100,O=c1c(O)c(-c2ccccc2)oc2cc(O)cc(O)c12 [GALANGIN]
3,100,O=c1c(-c2ccc(O)cc2)coc2cc(O)cc(O)c12 [GENISTEIN]

# Target: T1, Aromatase
# Assay: Inhibition of human aromatase by fluorometric assay
row,SMILES,IC50 [µM]
1,O=c1c(O)c(-c2ccc(O)c(O)c2)oc2c(O)c(O)cc(O)c12 [GOSSYPETIN],11
2,O=C1C[C@@H](c2ccc(O)cc2)Oc2cc(O)ccc21 [LIQUIRTIGENIN],0.34
3,O=c1c(O)c(-c2cc(O)c(O)c(O)c2)oc2cc(O)cc(O)c12 [MYRICETIN],10

# — ChEMBL document CHEMBL1144205, “Screening of herbal constituents for aromatase inhibitory activity” (Bioorg Med Chem, 2008)
